ChEMBL document CHEMBL3988442, “University of Dundee, Small-Polar-MMV Screening Library” (2021)

Columns and labels:
[1] = microbe, parasite or virus in culture; details: Mycobacterium tuberculosis, 96 h, read-out: pIC50 (converted)
[2] = microbe, parasite or virus in culture; details: Mycobacterium tuberculosis, 72 h, read-out: pIC50 (converted)

Structure (SMILES) | IC50 [1] | IC50 [2]
CNCC(=O)NC1CCN(Cc2ccc(Br)cc2)CC1 | 294 µM | 257 µM
OCC(O)CSCCc1ccccc1Cl (stereo unspecified) | 473 µM | 136 µM
COc1ccc(OCCSc2n[nH]c(N)n2)cc1 | 220 µM | 199 µM
CCOC(C(=O)N(C)CC(N)=O)c1ccccc1 (stereo unspecified) | > 501 µM | > 501 µM
CN(C)CCN1CCOCC2(C1)CN(Cc1ccsc1)CCO2 (stereo unspecified) | > 50.1 µM | > 50.1 µM
COc1ccc(C2CCN(CC(=O)NC(N)=O)C2)cc1 (stereo unspecified) | > 501 µM | > 501 µM
CN(C1(C#N)CCC1)S(=O)(=O)c1ccccc1 | > 501 µM | > 501 µM
COCCNC(=O)c1cc2cc(C)ccc2n1C | > 501 µM | 173 µM
CCCc1cc(C(=O)NCCCC(=O)N2Cc3ccccc3C2)[nH]n1 | > 50.1 µM | > 50.1 µM
N#Cc1cccc(OCCn2cnc(C#N)n2)c1 | 304 µM | > 501 µM
COc1ccc(N2CCCN(CCC(N)=O)CC2)cc1 | 240 µM | 345 µM
O=C(NCC(=O)N1CCc2ccccc2C1)c1cnccn1 | > 50.1 µM | > 50.1 µM
CCNC(=O)CNc1ccc(Br)cc1 | 210 µM | 162 µM
COc1cc(Cl)ccc1CN | 279 µM | > 501 µM
Cc1nnsc1CN1C[C@H]2CC[C@@H]1CN(Cc1ccccc1)C2 | 42.5 µM | 13.8 µM
NCc1cc(Oc2cccc(F)c2)ccn1 | > 501 µM | 45.4 µM
N#CC1(C(=O)NCc2ccccc2F)CC1 | > 501 µM | > 501 µM
O=C(CC1COCCN1Cc1ccon1)c1cccs1 (stereo unspecified) | > 501 µM | 172 µM
CC(NC(=O)CCNC(=O)c1ccco1)c1cccs1 (stereo unspecified) | > 501 µM | > 501 µM
Cn1cnc2c1CCN(c1ccnc(-c3ccccc3)n1)C2 | 38.1 µM | 15.6 µM
CC(C(N)=O)N1CCC(=Cc2ccccc2)CC1 (stereo unspecified) | 364 µM | 290 µM
CC(C)(C)OC(=O)N1CC2(CCC(CN)O2)C1 (stereo unspecified) | 263 µM | 231 µM
Cc1cc(N2CCN(C(=O)Cc3ccc4c(c3)OCO4)CC2)cc(C)n1 | > 50.1 µM | > 50.1 µM
NCc1cccc2cc[nH]c12 | 261 µM | 245 µM
CC(C)C(=O)N1CCC(C(=O)c2ccc(O)cc2)CC1 | > 501 µM | 5.6 µM
c1csc(CSCCNC2=NCCN2)c1 | > 501 µM | > 501 µM
COCCc1noc(C2CNC2)n1 | 250 µM | 247 µM

Structure (SMILES) | IC50 [1] | IC50 [2]
Cc1cc(C)c(CN2CCOC(CN)C2)cc1C (stereo unspecified) | 259 µM | 183 µM
CNC(=O)CCN1CCC(=Cc2ccccc2)CC1 | > 501 µM | 258 µM
OC(CN1CCn2ccnc2C1)c1ccc(Cl)cc1 (stereo unspecified) | > 501 µM | 186 µM
COCCCNC(=O)c1coc(Br)c1 | 116 µM | 118 µM
N#Cc1ccc(NC2CCN(c3ncccn3)CC2)cc1C(F)(F)F | 6.68 µM | 12.2 µM
O=C(CC1COc2ccccc2O1)N1CCOCC1 (stereo unspecified) | 64 µM | 74.9 µM
c1ccc2[nH]c(NCC3CCCO3)nc2c1 (stereo unspecified) | 166 µM | > 501 µM
O=C1COC2(CCN(c3ccccn3)CC2)CN1 | > 50.1 µM | > 50.1 µM
CC1CCCCN1S(=O)(=O)N1CCNCC1 (stereo unspecified) | > 501 µM | > 501 µM
N[C@@H]1CC[C@@H](NC(=O)c2cc3sccc3[nH]2)C1 | > 501 µM | 167 µM
O=C(Nc1cc(F)cc(F)c1)c1ccncc1 | > 501 µM | 224 µM
CC1CCN(C(=O)c2cnn(-c3cccnc3)c2)CC1 | 67.4 µM | 307 µM
Nc1nc(-c2c(F)cccc2F)co1 | > 501 µM | > 501 µM
Cc1cc(C)c(C#N)c(N2CCOCC(CO)C2)n1 (stereo unspecified) | > 501 µM | > 501 µM
OCCOCCN1CCC(=Cc2ccccc2)CC1 | 242 µM | 203 µM
CC(C)CN(Cc1nnc(-c2ccco2)o1)CC(C)C | > 50.1 µM | 4.4 µM
CC(C(=O)NC1CC1)N1CCN(C)c2ccccc2C1 (stereo unspecified) | 276 µM | 248 µM
COc1ccc(CN2CC[C@@H](O)[C@@H]2Cc2cnn(C)c2)cc1 | > 50.1 µM | > 50.1 µM
CC(C)N1[C@H](CN2CCCC2)C[C@@H]2CN(Cc3ccoc3)CC[C@@H]21 | > 50.1 µM | > 50.1 µM
CSCC(C)(O)CNc1nnnn1-c1ccccc1 (stereo unspecified) | 290 µM | 306 µM
O=C(C1Cc2cc(Cl)ccc2O1)N1CCOCC1 (stereo unspecified) | > 501 µM | > 501 µM
COc1ccc(Cl)c(S(=O)(=O)NCCC(C)N)c1 (stereo unspecified) | 187 µM | 116 µM
CC(C)Cc1cc(C(=O)N(C)Cc2cnccn2)on1 | > 501 µM | > 501 µM
Cc1cccc(NC(=O)C(C)Oc2ccc3c(c2)OCO3)n1 (stereo unspecified) | 5.27 µM | 16 µM
CCc1nnc(CN2CCOC3(CCCC3)C2)o1 | > 501 µM | > 501 µM
O=C(NC1CCc2ccc(F)cc21)c1c[nH]nn1 (stereo unspecified) | 399 µM | > 501 µM
